Measurements from ChEMBL document CHEMBL4842340, “Development of Cagrilintide, a Long-Acting Amylin Analogue” (J Med Chem, 2021).
Values after ≈ are worked out from the molar mass of the structure shown. *1 amine or outer side, *2 acyl side, *3 side chain or, on linkers, in order; H or OH if unused. Where a SMILES comes first, the peptide text is derived from it. Bridges are numbered along the chain shown (N, C = ends). [ ]: non-standard residue; d: D form. The star is where a group is joined. C20 diacid = O=C(O)CCCCCCCCCCCCCCCCCCC(=O)*; γGlu = O=C(O)[C@H](CCC(=O)[*:2])N[*:1]

How the values were obtained:
[1] = system: Rattus norvegicus; test: Reduction in food intake in Sprague-Dawley rat at 30 nmol/kg, sc administered as single dose measured upto 24 hrs relative to control; format: functional; set-up: scale not given: the % may be the effect or the level left; conditions: time hrs <=24
[2] = Agonist activity at rat AMY3R (CT+RAMP3) expressed in tk-ts13 cells assessed as increase in intracellular cAMP level incuabted for 25 mins by CRE luciferase reporter gene assay; format: cell-based; conditions: tk-ts13, 25 min
[3] = organism: Homo sapiens; test: Ratio of IC50 for displacement of [125I]-calcitonin from human calcitonin receptor expressed in tk-ts 13 cells to IC50 for displacement of [125I]-amylin from human AMY3R (CTR+RAMP3) expressed in BHK-13 cells; format: cell-based
[4] = Agonist activity at rat calcitonin receptor expressed in BHK-13 cells assessed as increase in intracellular cAMP concentration incubated for 25 mins by CRE luciferase reporter gene assay; format: cell-based; conditions: BHK-13, 25 min
[5] = organism: Homo sapiens; test: Ratio of EC50 for human calcitonin receptor expressed in BHK570 cells to EC50 for human AMY3R (CT+RAMP3) expressed in Hollex1 cells; format: cell-based
[6] = Solubility of the compound in bis-tris propane at pH 8 by UPLC analysis; format: physicochemical; conditions: bis-tris propane buffer
[7] = Displacement of [125I]-calcitonin from rat calcitonin receptor expressed in tk-ts 13 cells measured after 120 mins by scintillation proximity assay; format: cell-based; conditions: tk-ts13
[8] = organism: Rattus norvegicus; test: Ratio of EC50 for rat calcitonin receptor expressed in BHK-13 cells to EC50 for rat AMY3R (CT+RAMP3) expressed in tk-ts13 cells; format: cell-based
[9] = molecular target: Insulin (Homo sapiens) (UniProt P01308); test: Effect on insulin (unknown origin) amyloid fibril formation assessed as lag time in glycyl-glycine buffer at pH 4 measured after 45 hrs by thioflavin-T fluorescence assay
[10] = Solubility of the compound in bis-tris propane at pH 6 by UPLC analysis; format: physicochemical; conditions: bis-tris propane buffer
[11] = molecular target: Insulin (Homo sapiens) (UniProt P01308); test: Effect on insulin (unknown origin) amyloid fibril formation assessed as peptide recovery in glycyl-glycine buffer at pH 4 measured after 45 hrs by thioflavin-T fluorescence assay relative to control; set-up: concentration or dose not given beside the values
[12] = organism: Rattus norvegicus; test: Ratio of IC50 for displacement of [125I]-calcitonin from rat calcitonin receptor expressed in tk-ts 13 cells to IC50 for displacement of [125I]-amylin from rat AMY3R (CTR+RAMP3) expressed in BHK-13 cells; format: cell-based
[13] = Solubility of the compound in lactate at pH 4 by UPLC analysis; format: physicochemical; conditions: lactate buffer
[14] = Solubility of the compound in lactate at pH 5 by UPLC analysis; format: physicochemical; conditions: lactate buffer
[15] = Solubility of the compound in bis-tris propane at pH 6.5 by UPLC analysis; format: physicochemical; conditions: bis-tris propane buffer
[16] = system: Rattus norvegicus; test: Reduction in food intake in Sprague-Dawley rat at 3 nmol/kg, sc administered as single dose measured after 24 to 48 hrs relative to control; format: functional; set-up: scale not given: the % may be the effect or the level left; conditions: time 24-48 hrs
[17] = Solubility of the compound in lactate at pH 3 by UPLC analysis; format: physicochemical; conditions: lactate buffer
[18] = Solubility of the compound in bis-tris propane at pH 7.5 by UPLC analysis; format: physicochemical; conditions: bis-tris propane buffer
[19] = Displacement of [125I]-amylin from rat AMY3R (CTR+RAMP3) expressed in BHK-13 cells measured after 120 mins by scintillation proximity assay; format: cell-based
[20] = Displacement of [125I]-calcitonin from human calcitonin receptor expressed in tk-ts 13 cells measured after 120 mins by scintillation proximity assay; format: cell-based; conditions: tk-ts13
[21] = Displacement of [125I]-amylin from human AMY3R (CTR+RAMP3) expressed in BHK-13 cells measured after 120 mins by scintillation proximity assay; format: cell-based
[22] = Agonist activity at human AMY3R (CT+RAMP3) expressed in Hollex1 cells incubated for 3 hrs by luminescence assay; format: cell-based; conditions: Hollex1, 3 h
[23] = system: Rattus norvegicus; test: Reduction in food intake in Sprague-Dawley rat at 3 nmol/kg, sc administered as single dose measured upto 24 hrs relative to control; format: functional; set-up: scale not given: the % may be the effect or the level left; conditions: time hrs <=24
[24] = Agonist activity at human calcitonin receptor expressed in BHK570 cells assessed as increase in intracellular cAMP concentration incubated for 3 hrs in absence of albumin by CRE luciferase reporter gene assay; format: cell-based; conditions: BHK570, 3 h
[25] = Solubility of the compound in bis-tris propane at pH 7 by UPLC analysis; format: physicochemical; conditions: bis-tris propane buffer
[26] = system: Rattus norvegicus; test: Reduction in food intake in Sprague-Dawley rat at 30 nmol/kg, sc administered as single dose measured after 24 to 48 hrs relative to control; format: functional; set-up: scale not given: the % may be the effect or the level left; conditions: time 24-48 hrs
[27] = molecular target: Insulin (Homo sapiens) (UniProt P01308); test: Effect on insulin (unknown origin) amyloid fibril formation assessed as lag time in HEPES buffer at pH 7.5 measured after 45 hrs by thioflavin-T fluorescence assay

Insulin (Homo sapiens), sequence (P01308 whole entry): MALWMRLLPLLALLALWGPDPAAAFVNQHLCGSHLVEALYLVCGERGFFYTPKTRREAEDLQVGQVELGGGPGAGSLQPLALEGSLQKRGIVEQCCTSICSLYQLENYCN

| EC50 [2] | EC50 [4] | solubility [6] | TIME [9] | solubility [10] | Activity [11] | solubility [13] | solubility [14] | solubility [15] | solubility [17] | solubility [18] | EC50 [22] | EC50 [24] | solubility [25] | Structure (SMILES) | Activity [1] | Ratio IC50 [3] | Ratio EC50 [5] | Ratio EC50 [8] | Activity [16] | Activity [23] | also measured |
| --- | --- | --- | --- | --- | --- | --- | --- | --- | --- | --- | --- | --- | --- | --- | --- | --- | --- | --- | --- | --- | --- |
| 63 pM | 355 pM | 138 µM (≈ 615 µg/mL) | 11 h | 52 µM (≈ 232 µg/mL) | 0% | 200 µM (≈ 891 µg/mL) | 200 µM (≈ 891 µg/mL) | 16 µM (≈ 71.3 µg/mL) | 200 µM (≈ 891 µg/mL) | 58 µM (≈ 259 µg/mL) | 83 pM | 128 pM | 15 µM (≈ 66.9 µg/mL) | CC[C@H](C)[C@H](NC(=O)[C@@H]1CCCN1C(=O)CNC(=O)[C@H](Cc1ccccc1)NC(=O)[C@H](CC(N)=O)NC(=O)[C@H](CC(N)=O)NC(=O)[C@H](CO)NC(=O)[C@H](CO)NC(=O)[C@H](CCC(=O)O)NC(=O)[C@H](Cc1cnc[nH]1)NC(=O)[C@H](CC(C)C)NC(=O)[C@H](Cc1ccccc1)NC(=O)[C@H](CCC(=O)O)NC(=O)[C@H](C)NC(=O)[C@H](CC(C)C)NC(=O)[C@H](CCCNC(=N)N)NC(=O)[C@H](CCC(N)=O)NC(=O)[C@@H](NC(=O)[C@H](C)NC(=O)[C@@H]1CSSC[C@H](NC(=O)[C@H](Cc2cnc[nH]2)NC(=O)CC[C@H](NC(=O)CCCCCCCCCCCCCCCCCCC(=O)O)C(=O)O)C(=O)N[C@@H](CC(N)=O)C(=O)N[C@@H]([C@@H](C)O)C(=O)N[C@@H](C)C(=O)N[C@@H]([C@@H](C)O)C(=O)N1)[C@@H](C)O)C(=O)N[C@@H](CC(C)C)C(=O)N1CCC[C@H]1C(=O)N1CCC[C@H]1C(=O)N[C@H](C(=O)N[C@@H](CC(N)=O)C(=O)N[C@H](C(=O)NCC(=O)N[C@@H](CO)C(=O)N[C@@H](CC(N)=O)C(=O)N[C@H](C(=O)N[C@@H](Cc1ccc(O)cc1)C(N)=O)[C@@H](C)O)C(C)C)[C@@H](C)O ({C20 diacid-γGlu}-HCNTATCATQRLAEFLHESSNNFGPILPPTNVGSNTY-NH2; disulfide 2-7) | 93% | 13 | 2 | 6 | 45% | 50% | IC50 [7]: 812 pM; Ratio IC50 [12]: 24; IC50 [19]: 34 pM; IC50 [20]: 1750 pM; IC50 [21]: 137 pM; Activity [26]: 92% |
| 335 pM | 14100 pM | 1 µM (≈ 4.72 µg/mL) | 6 h | 1 µM (≈ 4.72 µg/mL) | 9% | 200 µM (≈ 945 µg/mL) | 200 µM (≈ 945 µg/mL) | 1 µM (≈ 4.72 µg/mL) | 200 µM (≈ 945 µg/mL) | 1 µM (≈ 4.72 µg/mL) | 74 pM | 136 pM | 1 µM (≈ 4.72 µg/mL) | CC[C@H](C)[C@H](NC(=O)[C@@H]1CCCN1C(=O)CNC(=O)[C@H](Cc1ccccc1)NC(=O)[C@H](CC(N)=O)NC(=O)[C@H](CC(N)=O)NC(=O)[C@H](CO)NC(=O)[C@H](CO)NC(=O)[C@H](Cc1cnc[nH]1)NC(=O)[C@H](Cc1cnc[nH]1)NC(=O)[C@H](CC(C)C)NC(=O)[C@H](Cc1ccccc1)NC(=O)[C@H](CC(N)=O)NC(=O)[C@H](C)NC(=O)[C@H](CC(C)C)NC(=O)[C@H](CCCNC(=N)N)NC(=O)[C@H](CCC(N)=O)NC(=O)[C@@H](NC(=O)[C@H](C)NC(=O)[C@@H]1CSSC[C@H](NC(=O)[C@H](Cc2cnc[nH]2)NC(=O)CC[C@H](NC(=O)[C@H](Cc2cnc[nH]2)NC(=O)[C@H](Cc2cnc[nH]2)NC(=O)CCCCCCCCCCCCCCCCCCC(=O)O)C(=O)O)C(=O)N[C@@H](CC(N)=O)C(=O)N[C@@H]([C@@H](C)O)C(=O)N[C@@H](C)C(=O)N[C@@H]([C@@H](C)O)C(=O)N1)[C@@H](C)O)C(=O)N[C@@H](CC(C)C)C(=O)N1CCC[C@H]1C(=O)N1CCC[C@H]1C(=O)N[C@H](C(=O)N[C@@H](CC(N)=O)C(=O)N[C@H](C(=O)NCC(=O)N[C@@H](CO)C(=O)N[C@@H](CC(N)=O)C(=O)N[C@H](C(=O)N[C@@H](Cc1ccc(O)cc1)C(N)=O)[C@@H](C)O)C(C)C)[C@@H](C)O ({C20 diacid}-HH[γGlu]HCNTATCATQRLANFLHHSSNNFGPILPPTNVGSNTY-NH2; disulfide 5-10) | 75% | 6 | 2 | 42 | 4% | 32% | IC50 [7]: 3330 pM; Ratio IC50 [12]: 22; IC50 [19]: 149 pM; IC50 [20]: 1300 pM; IC50 [21]: 216 pM; Activity [26]: 44% |
| 623 pM | 4970 pM | 200 µM (≈ 922 µg/mL) | 16 h | 200 µM (≈ 922 µg/mL) | 35% | 200 µM (≈ 922 µg/mL) | 200 µM (≈ 922 µg/mL) | 200 µM (≈ 922 µg/mL) | 200 µM (≈ 922 µg/mL) | 200 µM (≈ 922 µg/mL) | 297 pM | 347 pM | 200 µM (≈ 922 µg/mL) | CC[C@H](C)[C@H](NC(=O)[C@@H]1CCCN1C(=O)CNC(=O)[C@H](Cc1ccccc1)NC(=O)[C@H](CC(N)=O)NC(=O)[C@H](CC(N)=O)NC(=O)[C@H](CO)NC(=O)[C@H](CO)NC(=O)[C@H](Cc1c[nH]cn1)NC(=O)[C@H](Cc1cnc[nH]1)NC(=O)[C@H](CC(C)C)NC(=O)[C@H](Cc1ccccc1)NC(=O)[C@H](CCC(=O)O)NC(=O)[C@H](C)NC(=O)[C@H](CC(C)C)NC(=O)[C@H](CCCNC(=N)N)NC(=O)[C@H](CCC(N)=O)NC(=O)[C@@H](NC(=O)[C@H](C)NC(=O)[C@@H]1CSSC[C@H](NC(=O)[C@H](CCCCN)NC(=O)CC[C@H](NC(=O)CC[C@H](NC(=O)CCCCCCCCCCCCCCCCCCC(=O)O)C(=O)O)C(=O)O)C(=O)N[C@@H](CC(N)=O)C(=O)N[C@@H]([C@@H](C)O)C(=O)N[C@@H](C)C(=O)N[C@@H]([C@@H](C)O)C(=O)N1)[C@@H](C)O)C(=O)N[C@@H](CC(C)C)C(=O)N1CCC[C@H]1C(=O)N1CCC[C@H]1C(=O)N[C@H](C(=O)N[C@@H](CC(N)=O)C(=O)N[C@H](C(=O)NCC(=O)N[C@@H](CO)C(=O)N[C@@H](Cc1cnc[nH]1)C(=O)N[C@H](C(=O)N[C@@H](Cc1ccc(O)cc1)C(N)=O)[C@@H](C)O)C(C)C)[C@@H](C)O ({C20 diacid-γGlu-γGlu}-KCNTATCATQRLAEFLHHSSNNFGPILPPTNVGSHTY-NH2; disulfide 2-7) | – | – | 1 | 8 | 21% | 46% | TIME [27]: 4 h |
